Source: patent US11123337B2, “4-methylsulfonyl-substituted piperidine urea compounds” (MYOKARDIA, INC., priority 2015, dated 2021)
Structures can show the parent of a compound that is named as a salt.

What was measured:
[1] = tested on: adult rat ventricular myocytes; assay: Cardiomyocyte contractility assay (IonOptix edge detection, fractional shortening); assay type: cell-based; settings: 1 Hz pacing; for Activity at 1.0 uM (fractional shortening activation over basal): 1.0 uM compound; for Activity at 10 uM (fractional shortening activation over basal): 10 uM compound; for Activity at 3.0 uM (fractional shortening activation over basal): 3.0 uM compound
Protocol: Contractility of adult rat ventricular myocytes is determined by edge detection with an IonOptix contractility system. Aliquots of myocytes in Tyrode buffer (137 mM NaCl, 3.7 mM KCl, 0.5 mM MgCl2, 1.5 mM CaCl2), 4 mM HEPES, 11 mM glucose) are placed in a perfusion chamber (Series 20 RC-27NE; Warner Instruments), allowed to adhere to the coverslip, and then perfused with 37° C. Tyrode buffer. Myocytes are filed stimulated at 1 Hz and 10V. Only myocytes with clear striations, quiescent prior to pacing, with a cell length of 120-180 microns, a basal fractional shortening equal to 3-8% of the cell length, and a contraction velocity greater than 100 microns per second are used for contractility experiments. To determine the response to compounds, myocytes are first perfused for 60 seconds with Tyrodes buffer followed by 5 minutes of compound and a 140 second washout with Tyrodes buffer. Data is continuously recorded using IonOptix software. Contractility data is analyzed using Ionwizard software (IonOptix). For each cell, 10-20 contractility transients were averaged and compared under basal (no compound) and compound-treated conditions. Compound activity is measured by effects on fractional shortening (FS), where fractional shortening is the ratio of the peak length of the cell at contraction divided by the basal cell length normalized to 100% for an untreated cell.

bovine cardiac myosin = bovine cardiac myosin (Bos taurus, UniProt Q9BE39); assay: Myosin activation assay (PK/LDH-coupled ATPase, bovine cardiac myofibrils); assay type: biochemical; settings: AC20 = concentration at which total response is increased by twenty percent
Sequence of bovine cardiac myosin (Q9BE39 whole entry): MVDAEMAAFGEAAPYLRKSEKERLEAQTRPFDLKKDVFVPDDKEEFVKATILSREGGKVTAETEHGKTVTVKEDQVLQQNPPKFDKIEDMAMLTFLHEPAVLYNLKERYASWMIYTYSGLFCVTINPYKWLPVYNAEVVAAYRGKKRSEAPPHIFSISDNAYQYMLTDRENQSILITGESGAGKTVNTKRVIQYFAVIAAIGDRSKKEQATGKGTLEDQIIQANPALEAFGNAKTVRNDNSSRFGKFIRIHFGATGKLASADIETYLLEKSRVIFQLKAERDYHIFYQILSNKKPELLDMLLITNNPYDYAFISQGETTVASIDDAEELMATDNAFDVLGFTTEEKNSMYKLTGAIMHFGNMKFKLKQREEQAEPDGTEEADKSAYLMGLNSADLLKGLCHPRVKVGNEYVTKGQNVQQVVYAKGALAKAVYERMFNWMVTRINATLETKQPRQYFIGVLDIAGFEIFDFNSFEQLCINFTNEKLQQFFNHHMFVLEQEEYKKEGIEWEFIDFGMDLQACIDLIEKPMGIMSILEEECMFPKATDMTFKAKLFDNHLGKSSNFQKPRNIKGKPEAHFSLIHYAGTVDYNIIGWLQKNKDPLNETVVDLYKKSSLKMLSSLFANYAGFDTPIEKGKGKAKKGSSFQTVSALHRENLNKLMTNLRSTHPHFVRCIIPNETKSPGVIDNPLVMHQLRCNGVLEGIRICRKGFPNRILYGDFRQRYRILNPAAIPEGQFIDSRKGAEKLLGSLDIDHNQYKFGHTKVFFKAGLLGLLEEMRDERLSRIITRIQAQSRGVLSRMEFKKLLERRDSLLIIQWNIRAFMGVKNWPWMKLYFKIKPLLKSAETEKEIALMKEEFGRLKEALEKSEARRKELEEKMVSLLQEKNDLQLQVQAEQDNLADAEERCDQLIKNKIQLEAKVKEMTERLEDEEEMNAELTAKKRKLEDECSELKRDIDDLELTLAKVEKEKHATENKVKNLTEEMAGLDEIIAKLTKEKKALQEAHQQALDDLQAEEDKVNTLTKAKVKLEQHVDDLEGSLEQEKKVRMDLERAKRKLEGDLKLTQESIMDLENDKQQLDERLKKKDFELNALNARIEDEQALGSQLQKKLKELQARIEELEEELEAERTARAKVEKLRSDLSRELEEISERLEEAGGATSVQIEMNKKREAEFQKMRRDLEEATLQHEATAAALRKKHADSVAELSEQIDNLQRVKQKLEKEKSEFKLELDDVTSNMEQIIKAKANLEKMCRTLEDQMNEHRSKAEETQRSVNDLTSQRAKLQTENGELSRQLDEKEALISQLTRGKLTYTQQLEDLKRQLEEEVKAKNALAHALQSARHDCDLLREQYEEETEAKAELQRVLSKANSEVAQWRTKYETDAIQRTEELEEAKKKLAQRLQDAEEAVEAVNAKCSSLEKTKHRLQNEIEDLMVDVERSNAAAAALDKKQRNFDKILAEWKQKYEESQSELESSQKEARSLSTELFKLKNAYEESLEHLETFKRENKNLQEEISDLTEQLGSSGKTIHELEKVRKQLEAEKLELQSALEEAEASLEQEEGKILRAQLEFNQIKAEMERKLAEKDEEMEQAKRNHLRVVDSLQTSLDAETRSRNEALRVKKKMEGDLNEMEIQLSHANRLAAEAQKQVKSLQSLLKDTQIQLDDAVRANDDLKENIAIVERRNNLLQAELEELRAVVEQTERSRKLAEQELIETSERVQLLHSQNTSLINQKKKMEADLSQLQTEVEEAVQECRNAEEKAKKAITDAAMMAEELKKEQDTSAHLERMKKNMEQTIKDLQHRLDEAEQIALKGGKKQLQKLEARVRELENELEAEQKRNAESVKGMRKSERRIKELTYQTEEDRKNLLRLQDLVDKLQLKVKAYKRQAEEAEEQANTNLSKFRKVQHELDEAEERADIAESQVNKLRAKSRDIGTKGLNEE
Sequence of bovine cardiac myosin (P85100 whole entry partner): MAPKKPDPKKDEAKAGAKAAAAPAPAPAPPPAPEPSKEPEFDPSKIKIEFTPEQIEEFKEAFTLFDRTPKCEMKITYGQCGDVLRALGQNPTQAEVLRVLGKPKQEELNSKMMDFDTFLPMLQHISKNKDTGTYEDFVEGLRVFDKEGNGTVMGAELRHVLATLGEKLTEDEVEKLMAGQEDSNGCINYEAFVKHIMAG
Sequence of bovine cardiac myosin (Q3SZE5 whole entry partner): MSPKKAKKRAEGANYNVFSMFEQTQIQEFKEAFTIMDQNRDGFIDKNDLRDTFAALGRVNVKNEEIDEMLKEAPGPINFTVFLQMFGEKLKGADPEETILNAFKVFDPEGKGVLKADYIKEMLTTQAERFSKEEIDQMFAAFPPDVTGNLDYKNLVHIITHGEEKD
Method in brief: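 Values are the concentrations raising the ATPase rate by 20% or 50% over DMSO, from 10-point dose responses fitted with four parameters. Rate is NADH loss at 340 nm via PK/LDH coupling, read 15 min at room temperature, in pH 6.8 PIPES with 50 μM ATP. Bovine cardiac myofibrils were held at pCa ~6 or pCa 10.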

Which “Activity at 1.0 uM (fractional shortening activation over basal)” value [1] does the source give for `O=C(Nc1ccnnc1)N1CCC(C(F)(F)S(=O)(=O)c2cccc(F)c2)CC1` [Compound 5, 4-(Difluoro((3-fluorophenyl)sulfonyl)methyl)-N-(pyridazin-4-yl)piperidine-1-carboxamide] here?
The value was “++ (++ represents fractional shorting activation values from 20% to 50% over basal)”.

What about the “Activity at 10 uM (fractional shortening activation over basal)” value [1] of the same compound?
The value was “+++ (+++ represents fractional shortening activation values greater than 50% over basal)”.

What about the “Myosin Activation (AC20)” value (bovine cardiac myosin) of the same compound?
Its value is “++ (++ represents myosin activation value AC20 from 2 μM-5 μM)”.

With `CC(F)(C1CCN(C(=O)Nc2ccnnc2)CC1)S(=O)(=O)c1cccc(F)c1` (stereo not drawn) [Compound 6, 4-(1-Fluoro-1-((3-fluorophenyl)sulfonyl)ethyl)-N-(pyridazin-4-yl)piperidine-1-carboxamide trifluoroacetic acid salt] as the compound, how does the “Activity at 10 uM (fractional shortening activation over basal)” value [1] read?
The value was “++ (++ represents fractional shorting activation values from 20% to 50% over basal)”.

What about the “Myosin Activation (AC20)” value (bovine cardiac myosin) of the same compound?
Its value is “++ (++ represents myosin activation value AC20 from 2 μM-5 μM)”.

Which “Activity at 1.0 uM (fractional shortening activation over basal)” value [1] does the source give for `CC(C)(C1CCN(C(=O)Nc2ccnnc2)CC1)S(=O)(=O)c1cccc(F)c1` [Compound 7, 4-(2-((3-fluorophenyl)sulfonyl)propan-2-yl)-N-(pyridazin-4-yl)piperidine-1-carboxamide] here?
Its value is “++ (++ represents fractional shorting activation values from 20% to 50% over basal)”.

And the “Activity at 10 uM (fractional shortening activation over basal)” value [1]?
Its value is “++ (++ represents fractional shorting activation values from 20% to 50% over basal)”.

What about the “Myosin Activation (AC20)” value (bovine cardiac myosin) of the same compound?
Its value is “+++ (+++ represents myosin activation value AC20 < 2 μM)”.

For `Cn1nc(C(F)(F)F)cc1S(=O)(=O)[C@@](C)(F)C1CCN(C(=O)Nc2ccon2)CC1` [Compound 18, (R)-4-(1-Fluoro-1-((1-methyl-3-(trifluoromethyl)-1H-pyrazol-5-yl)sulfonyl)ethyl)-N-(isoxazol-3-yl)piperidine-1-carboxamide], which “Activity at 1.0 uM (fractional shortening activation over basal)” value [1] is on record?
Its value is “+++ (+++ represents fractional shortening activation values greater than 50% over basal)”.

And the “Myosin Activation (AC20)” value (bovine cardiac myosin)?
The value was “+++ (+++ represents myosin activation value AC20 < 2 μM)”.

`Cn1cc(S(=O)(=O)[C@@](C)(F)C2CCN(C(=O)Nc3ccon3)CC2)c(C(F)F)n1` [Compound 20, (R)-4-(1-((3-(Difluoromethyl)-1-methyl-1H-pyrazol-4-yl)sulfonyl)-1-fluoroethyl)-N-(isoxazol-3-yl)piperidine-1-carboxamide] was tested. Which “Activity at 1.0 uM (fractional shortening activation over basal)” value [1] did it give?
The value was “+ (+ represents fractional shorting activation <20% over basal)”.

What about the “Activity at 3.0 uM (fractional shortening activation over basal)” value [1] of the same compound?
The value was “++ (++ represents fractional shorting activation values from 20% to 50% over basal)”.

And the “Myosin Activation (AC20)” value (bovine cardiac myosin)?
The value was “+++ (+++ represents myosin activation value AC20 < 2 μM)”.

How did the “Activity at 1.0 uM (fractional shortening activation over basal)” value [1] turn out when `CC(C)(C1CCN(C(=O)Nc2ccncc2)CC1)S(=O)(=O)c1cccc(F)c1` [Compound 32, 4-(2-((3-fluorophenyl)sulfonyl)propan-2-yl)-N-(pyridin-4-yl)piperidine-1-carboxamide] was run?
The value was “++ (++ represents fractional shorting activation values from 20% to 50% over basal)”.

What about the “Myosin Activation (AC20)” value (bovine cardiac myosin) of the same compound?
Its value is “+++ (+++ represents myosin activation value AC20 < 2 μM)”.

What does the source list for `Cn1nc(Cl)cc1S(=O)(=O)C(C)(C)C1CCN(C(=O)Nc2ccon2)CC1` [Compound 129, 4-(2-((3-chloro-1-methyl-1H-pyrazol-5-yl)sulfonyl)propan-2-yl)-N-(isoxazol-3-yl)piperidine-1-carboxamide]?
Activity at 3.0 uM (fractional shortening activation over basal) [1]: +++ (+++ represents fractional shortening activation values greater than 50% over basal); Myosin Activation (AC20) (bovine cardiac myosin): +++ (+++ represents myosin activation value AC20 < 2 μM)

For `Cn1cc(S(=O)(=O)C(C)(C)C2CCN(C(=O)Nc3ccon3)CC2)c(C(F)F)n1` [Compound 149, 4-(2-((3-(difluoromethyl)-1-methyl-1H-pyrazol-4-yl)sulfonyl)propan-2-yl)-N-(isoxazol-3-yl)piperidine-1-carboxamide], which “Activity at 3.0 uM (fractional shortening activation over basal)” value [1] is on record?
The value was “++ (++ represents fractional shorting activation values from 20% to 50% over basal)”.

And the “Myosin Activation (AC20)” value (bovine cardiac myosin)?
The value was “++ (++ represents myosin activation value AC20 from 2 μM-5 μM)”.

With `COc1ccc(S(=O)(=O)C(C)(F)C2CCN(C(=O)Nc3ccon3)CC2)cn1` (stereo not drawn) [Compound 246, 4-(1-fluoro-1-((6-methoxypyridin-3-yl)sulfonyl)ethyl)-N-(isoxazol-3-yl)piperidine-1-carboxamide] as the compound, how does the “Activity at 3.0 uM (fractional shortening activation over basal)” value [1] read?
Its value is “+++ (+++ represents fractional shortening activation values greater than 50% over basal)”.

And the “Myosin Activation (AC20)” value (bovine cardiac myosin)?
The value was “++ (++ represents myosin activation value AC20 from 2 μM-5 μM)”.

Which results are given for `C[C@](F)(C1CCN(C(=O)Nc2ccnc(CO)c2)CC1)S(=O)(=O)c1cccc(F)c1` [Compound 287, (R)-4-(1-fluoro-1-((3-fluorophenyl)sulfonyl)ethyl)-N-(2-(hydroxymethyl)pyridin-4-yl)piperidine-1-carboxamide]?
Activity at 1.0 uM (fractional shortening activation over basal) [1]: ++ (++ represents fractional shorting activation values from 20% to 50% over basal); Activity at 3.0 uM (fractional shortening activation over basal) [1]: ++ (++ represents fractional shorting activation values from 20% to 50% over basal); Myosin Activation (AC20) (bovine cardiac myosin): +++ (+++ represents myosin activation value AC20 < 2 μM)
